The results in this text go back to patent US20240123079A1 (Seagen Inc., priority 2021, published 2024).

The assay relates to THP1-Dual™ reporter cells. Put plainly: THP1-Dual cell reporter assay (IRF-Lucia luciferase reporter). It is filed as cell-based, human. The protocol: THP1-Dual™ Cell Reporter Assay
Potency of compounds and ADCs was evaluated using the THP1-Dual™ cells (InvivoGen PN: thpd-nfis [also referred to as THP1 dual reporter cells]), which contain an IRF-Lucia luciferase reporter. Cells were cultured in RPMI-1640 (Gibco) with 10% heat-inactivated fetal bovine serum, Pen-Strep (100 U/mL-100 μg/mL, Gibco), HEPES (10 mM, Gibco)), sodium pyruvate (1 mM, Gibco), MEM non-essential amino acids (1×, Gibco), GlutaMAX (1×, Gibco), and beta-mercaptoethanol (55 μM, Gibco). Cells were plated in a 96-well flat bottom tissue culture-treated clear polystyrene plate (Corning Costar #3596) at ˜100,000 cells per well in 200 μL with the indicated concentration of the compound or ADC. The supernatant was harvested at 24 hours (compounds) or 48 hours (ADC) post plating for the reporter assay, or as indicated. To measure Lucia reporter signal, 10 μL of the supernatant was combined with 40 μL of QUANTI-Luc™ Luminescence assay reagent (Invivogen PN: rep-qlc1) in a 96-well clear flat bottom tissue culture-treated black polystyrene plate (Corning Costar #3603) and read on a Perkin Elmer Envision plate reader.
STING agonist compounds were assessed for their ability to activate THP1-Dual™ reporter cells, a human monocytic cell line in which type I interferon (IRF) signaling can be monitored via a secreted luciferase reporter protein (Lucia). THP1-Dual™ cells were treated with increasing concentrations of the agonists for 24h, then supernatants were harvested and the Lucia reporter signal was quantified using QUANTI-Luc™ Luminescence assay reagent.

Where [1] appears, read: ADCs: drug linker conjugated to a targeted mAb, 48 h.
The mark [2] stands for this setting: Homo sapiens, THP1-Dual, free compounds, 24 h, Lucia reporter signal, read-out: EC50.

Like-named read-outs stand apart in the source and are kept apart here.

For `CCn1nc(C)cc1C(=O)Nc1nc2cc(C(N)=O)cc(OC)c2n1C/C=C/Cn1c(NC(=O)c2cc(C)nn2CC)nc2cc(C(N)=O)cc(OCCCOC3CN(C(=O)CCN4C(=O)C=CC4=O)C3)c21` [Compound 27, (E)-1-(4-(5-carbamoyl-2-(1-ethyl-3-methyl-1H-pyrazole-5-carboxamido)-7-methoxy-1H-benzo[d]imidazol-1-yl)but-2-en-1-yl)-7-(3-((1-(3-(2,5-dioxo-2,5-dihydro-1H-pyrrol-1-yl)propanoyl)azetidin-3-yl)oxy)propoxy)-2-(1-ethyl-3-methyl-1H-pyrazole-5-carboxamido)-1H-benzo[d]imidazole-5-carboxamide], the 50% effective concentration (EC50) under setting [1] is given as 10.4 ng/mL.

As for `CCc1nc(C)oc1C(=O)Nc1nc2cc(C(N)=O)cc(OCCCN(C)C(=O)CCN3C(=O)C=CC3=O)c2n1C/C=C/Cn1c(NC(=O)c2cc(C)nn2CC)nc2cc(C(N)=O)cc(OC)c21` [Compound 112], the concentration for a half-maximal effect (EC50) under setting [1] is 2 ng/mL.

In the case of `CCn1nc(C)cc1C(=O)Nc1nc2cc(C(=O)O)cc(OC)c2n1C/C=C/Cn1c(NC(=O)c2cc(C)nn2CC)nc2cc(C(=O)O)cc(OCCCN(C)C(=O)OCc3ccc(O[C@@H]4O[C@H](C(=O)O)[C@@H](O)[C@H](O)[C@H]4O)cc3NC(=O)CCNC(=O)CCN3C(=O)C=CC3=O)c21` [Compound 69], under setting [1], the “EC50 (ng/mL)” value was >10,000 ng/mL.

As for `COc1cc(C(N)=O)cc2nc(NC(=O)Cn3cccn3)n(C/C=C/Cn3c(NC(=O)Cn4cccn4)nc4cc(C(N)=O)cc(O)c43)c12` [Compound 47], the concentration for a half-maximal effect (EC50) under setting [2] was above 10000 nM.

`CCn1cc(C(=O)Nc2nc3cc(C(N)=O)cc(OCCCNC)c3n2C/C=C/Cn2c(NC(=O)c3cc(C)nn3CC)nc3cc(C(N)=O)cc(OC)c32)c(C)n1` [Compound 85]: the concentration for a half-maximal effect (EC50) under setting [2] was above 10000 nM.

In the case of `CCn1nc(C)cc1C(=O)Nc1nc2cc(S(N)(=O)=O)ccc2n1C/C=C/Cn1c(NC(=O)c2cc(C)nn2CC)nc2cc(C(N)=O)cc(OCCCOC3CNC3)c21` [Compound 137, (E)-7-(3-(azetidin-3-yloxy)propoxy)-2-(1-ethyl-3-methyl-1H-pyrazole-5-carboxamido)-1-(4-(2-(1-ethyl-3-methyl-1H-pyrazole-5-carboxamido)-5-sulfamoyl-1H-benzo[d]imidazol-1-yl)but-2-en-1-yl)-1H-benzo[d]imidazole-5-carboxamide], under setting [2], the concentration giving a half-maximal response (EC50) came out at 1680 nM.

Regarding `CCn1nc(C)cc1C(=O)Nc1nc2cc(C(N)=O)cc(OC)c2n1C/C=C/Cn1c(NC(=O)c2cc(C)nn2C)nc2cc(C(N)=O)cc(OCCC3CNC3)c21` [Compound 140, (E)-7-(2-(azetidin-3-yl)ethoxy)-1-(4-(5-carbamoyl-2-(1-ethyl-3-methyl-1H-pyrazole-5-carboxamido)-7-methoxy-1H-benzo[d]imidazol-1-yl)but-2-en-1-yl)-2-(1,3-dimethyl-1H-pyrazole-5-carboxamido)-1H-benzo[d]imidazole-5-carboxamide], under setting [2], the EC50 was 1790 nM.

Take `CCn1nccc1C(=O)Nc1nc2cc(C(N)=O)cc(O)c2n1C/C=C/Cn1c(NC(=O)c2ccnn2CC)nc2cc(C(N)=O)cc(OC)c21` [Compound 37]: under setting [2], the concentration giving a half-maximal response (EC50) was above 10000 nM.

In the case of `COc1cc(C(N)=O)cc2nc(NC(=O)c3cc(C)n[nH]3)n(C/C=C/Cn3c(NC(=O)c4cc(C)n[nH]4)nc4cc(C(N)=O)cc(O)c43)c12` [Compound 55], the half-maximal effective concentration (EC50) under setting [2] was above 10000 nM.

As to `CCn1nc(C)cc1C(=O)Nc1nc2cc(C(N)=O)cc(OC)c2n1C/C=C/Cn1c(NC(=O)c2cc(C)nn2CC)nc2cc(C(N)=O)cc(OCCCN(C)C(=O)[C@H](CCC(=O)OC)NC(=O)CCN3C(=O)C=CC3=O)c21` [Compound 123], the “EC50” value under setting [1] is 1.6 ng/mL.

`COc1cc(C(N)=O)cc2nc(NC(=O)c3ccno3)n(C/C=C/Cn3c(NC(=O)c4ccno4)nc4cc(C(N)=O)cc(O)c43)c12` [Compound 59]: the concentration for a half-maximal effect (EC50) under setting [2] was above 10000 nM.

On to `CCn1nc(C)cc1C(=O)Nc1nc2cc(C(N)=O)cc(OC)c2n1C/C=C/Cn1c(NC(=O)c2cc(C)nn2CC)nc2cc(C(N)=O)cc(OCCCN(C)C(=O)[C@H](COC)NC(=O)CCN3C(=O)CC(SC[C@H](N)C(=O)O)C3=O)c21` (some centres unmarked) [Compound 76], for which the concentration giving a half-maximal response (EC50) under setting [2] is 58.8 nM.

With `COc1cc(C(N)=O)cc2nc(NC(=O)c3cc(C)no3)n(C/C=C/Cn3c(NC(=O)c4cc(C)no4)nc4cc(C(N)=O)cc(O)c43)c12` [Compound 58], the EC50 under setting [2] is above 10000 nM.

`COc1cc(C(N)=O)cc2nc(NC(=O)c3cccs3)n(C/C=C/Cn3c(NC(=O)c4cccs4)nc4cc(C(N)=O)cc(O)c43)c12` [Compound 35]: the EC50 under setting [2] is above 10000 nM.

On to `CCn1nc(C)cc1C(=O)Nc1nc2cc(C(N)=O)ccc2n1C/C=C/Cn1c(NC(=O)c2cc(C)nn2CC)nc2cc(C(N)=O)cc(OCCCN(C)C(=O)CCCCCN3C(=O)CC(SC[C@H](N)C(=O)O)C3=O)c21` (stereo partly drawn) [Compound 132, S-(1-(6-((3-((5-carbamoyl-1-((E)-4-(5-carbamoyl-2-(1-ethyl-3-methyl-1H-pyrazole-5-carboxamido)-1H-benzo[d]imidazol-1-yl)but-2-en-1-yl)-2-(1-ethyl-3-methyl-1H-pyrazole-5-carboxamido)-1H-benzo[d]imidazol-7-yl)oxy)propyl)(methyl)amino)-6-oxohexyl)-2,5-dioxopyrrolidin-3-yl)-L-cysteine], for which, under setting [2], the EC50 turned out to be 37.4 nM.

With `CCn1nc(C)cc1C(=O)Nc1nc2cc(C(N)=O)cc(OC)c2n1C/C=C/Cn1c(NC(=O)c2ncccn2)nc2cc(C(N)=O)cc(OCCCN(C)C(=O)CCN3C(=O)C=CC3=O)c21` [Compound 101], the “EC50 (ng/mL)” value under setting [1] was >10,000 ng/mL.

For `COc1cc(C(N)=O)cc2nc(NC(=O)c3nc(C)cs3)n(C/C=C/Cn3c(NC(=O)c4nc(C)cs4)nc4cc(C(N)=O)cc(O)c43)c12` [Compound 38], the EC50 under setting [2] was above 10000 nM.

As to `CCn1nc(C)cc1C(=O)Nc1nc2cc(S(N)(=O)=O)ccc2n1C/C=C/Cn1c(NC(=O)c2cc(C)nn2C)nc2cc(C(N)=O)cc(OCCCN(C)C(=O)CCN3C(=O)C=CC3=O)c21` [Compound 148, (E)-2-(1,3-dimethyl-1H-pyrazole-5-carboxamido)-7-(3-(3-(2,5-dioxo-2,5-dihydro-1H-pyrrol-1-yl)-N-methylpropanamido)propoxy)-1-(4-(2-(1-ethyl-3-methyl-1H-pyrazole-5-carboxamido)-5-sulfamoyl-1H-benzo[d]imidazol-1-yl)but-2-en-1-yl)-1H-benzo[d]imidazole-5-carboxamide], the “EC50 (ng/mL)” value under setting [1] was >10,000 ng/mL.

Consider `CCn1nc(C)cc1C(=O)Nc1nc2cc(S(=O)(=O)NC)ccc2n1C/C=C/Cn1c(NC(=O)c2cc(C)nn2CC)nc2cc(C(N)=O)cc(OCCCN(C)C(=O)OC(C)(C)C)c21` [Compound 127, tert-butyl (E)-(3-((5-carbamoyl-2-(1-ethyl-3-methyl-1H-pyrazole-5-carboxamido)-1-(4-(2-(1-ethyl-3-methyl-1H-pyrazole-5-carboxamido)-5-(N-methylsulfamoyl)-1H-benzo[d]imidazol-1-yl)but-2-en-1-yl)-1H-benzo[d]imidazol-7-yl)oxy)propyl)(methyl)carbamate], for which the EC50 under setting [2] was determined as 301 nM.

Consider `CCn1nc(C)cc1C(=O)Nc1nc2cc(C(N)=O)cc(OC)c2n1C/C=C/Cn1c(NC(=O)c2cc(C)nn2CC)nc2cc(C(N)=O)cc(OCCCN(C)C(=O)CCN3C(=O)C=CC3=O)c21` [Compound 12, (E)-1-(4-(5-carbamoyl-2-(1-ethyl-3-methyl-1H-pyrazole-5-carboxamido)-7-methoxy-1H-benzo[d]imidazol-1-yl)but-2-en-1-yl)-7-(3-(3-(2,5-dioxo-2,5-dihydro-1H-pyrrol-1-yl)-N-methylpropanamido)propoxy)-2-(1-ethyl-3-methyl-1H-pyrazole-5-carboxamido)-1H-benzo[d]imidazole-5-carboxamide], for which the EC50 (Homo sapiens, THP1-Dual, 24 h, free compounds, 24 h, Lucia reporter signal, read-out: EC50) stood at 37 nM.

For the compound `CCn1nc(C)cc1C(=O)Nc1nc2cc(C(N)=O)cc(OC)c2n1C/C=C/Cn1c(NC(=O)c2ccnnc2)nc2cc(C(N)=O)cc(OCCCNC)c21` [Compound 80], the EC50 under setting [2] is above 10000 nM.

With `CCn1cc(C)nc1C(=O)Nc1nc2cc(C(N)=O)cc(OCCCNC)c2n1C/C=C/Cn1c(NC(=O)c2cc(C)nn2CC)nc2cc(C(N)=O)cc(OC)c21` [Compound 86], under setting [2], the EC50 amounted to 2460 nM.

For the compound `CCn1nc(C)cc1C(=O)Nc1nc2cc(C(N)=O)cc(OC)c2n1C/C=C/Cn1c(NC(=O)c2cc(C)nn2CC)nc2cc(C(N)=O)cc(OCCCN(C)C(=O)[C@H](CC(C)C)NC(=O)CCN3C(=O)C=CC3=O)c21` [Compound 121], the “EC50” value under setting [1] is reported as 3.0 ng/mL.

Consider `COc1cc(C(=O)Nc2nc3cc(C(N)=O)cc(O)c3n2C/C=C/Cn2c(NC(=O)c3cc(OC)nn3C)nc3cc(C(N)=O)cc(OC)c32)n(C)n1` [Compound 51], for which, under setting [2], the concentration for a half-maximal effect (EC50) is above 10000 nM.

Take `CCn1nc(C)cc1C(=O)Nc1nc2cc(C(N)=O)cc(OC)c2n1C/C=C/Cn1c(NC(=O)c2cc(C)nn2CC)nc2cc(C(N)=O)cc(OCCCN(C)C(=O)[C@@H](N)Cc3ccccc3)c21` [Compound 116]: the half-maximal effective concentration (EC50) under setting [2] is 11.6 nM.

For the compound `CCn1nc(C)cc1C(=O)Nc1nc2cc(C(N)=O)cc(OC)c2n1C/C=C/Cn1c(NC(=O)c2cc(C)nn2CC)nc2cc(C(N)=O)cc(OCCCN(C)C(=O)[C@H](Cc3ccc(OC)cc3)NC(=O)CCN3C(=O)C=CC3=O)c21` [Compound 124], the concentration for a half-maximal effect (EC50) under setting [1] is 9.1 ng/mL.
